# Experiments:
# [1] = FDP levels in blood, brain and peripheral tissues after intraperitoneal administration; assay type: in vivo, Sprague-Dawley rats
# Protocol: Adult male Sprague-Dawley rats (170-220 g) were used to determine the kinetics of fructose-1,6-diphosphate (FDP). Levels of FDP were determined in blood and tissue samples as previously described (Gerhard, Methods of Enzymatic Analysis, Vol VI, Ed. Bergmeyer, H U, Academic Press NY, pp. 342-350). All chemicals and enzymes for the assay were obtained from Sigma Chemical Co (St. Louis Mo.). Animals were administered a single dose of 0.5 g kg-1 FDP (250 mg ml-1 dissolved in 0.1M phosphate buffered saline, pH 7). In vivo studies utilized the dicalcium salt of FDP, which has a purity of ˜70%. […] At the designated time, animals were anesthetized with 1 g kg-1 urethane. After deep anesthesia, whole blood was obtained from a cardiac puncture. One ml of whole blood was added to 5 ml of perchloric acid ([…]) and mixed. After centrifugation at 3,500 rev min-1 for 10 min at 4° C., the supernatant was removed and set aside. The sediment was re-suspended in 1 ml of the perchloric acid solution and 1 ml of distilled water and centrifuged. The resulting supernatant was combined with the first one and the pH was adjusted to 3.5 with potassium carbonate (5 mol l-1). The final volume was brought to 7 ml and the solution was allowed to sit in ice for 15 min. The supernatant was used for determination of FDP levels.
# Immediately after removal of the whole blood sample, the rat was perfused through the heart with ice-cold 0.01M phosphate buffered saline. Tissue samples from liver, kidney, skeletal muscle (from thigh) and intra-abdominal fat were obtained and then the brain was removed and dissected into hippocampus, cerebral cortex, cerebellum and rest of brain. […] All tissue samples were weighed and then homogenized in 5 ml of ice-cold perchloric acid (0.6 mol l-1) as quickly as possible. The homogenates were then treated was described above for whole blood.
# Actual levels of FDP were determined by monitoring absorbance of reduced nicotinamide adenine dinucleotide (NADH) and treating the sample with aldolase (EC 4.1.2.13, 45 units mg-1 diluted 1:27 with distilled water), the enzyme which cleaves FDP into dihydroxyacetone phosphate (DAP) and D-glyceraldehyde 3-phosphate (GAP). DAP and GAP are interconverted by the enzyme triosephosphate isomerase (TIM, EC 5.3.3.1, 5290 units mg-1 diluted 1:120 with distilled water). Glycerol-3-phosphate dehydrogenase (GDH, EC 1.1.1.8, 252 units mg-1 diluted 1:100 with distilled water) catalyzes the reduction of DAP by NADH. For the FDP measurements, 1.5 ml of tetraethyl ammonium buffer (TEA, 0.4 mol l-1, pH 7.6 with EDTA 40 mmol l-1) was added to 1 ml of the sample in a 4 ml cuvette. Then 0.1 ml of 5 mmol l-1 β-NADH, 0.4 ml of distilled water and 0.01 ml of the enzymes TIM and GDH were added and the cuvette inverted to mix the solutions. After 5 min the absorbance was read 3 times at 340 nm, each reading 3 min apart. The average of these readings is the initial absorbance (Ai). This step removes any DAP or GAP in the sample and determines the baseline absorbance. Aldolase (0.01 ml) was then added and mixed to cleave FDP into DAP and GAP. Nine minutes after addition of the aldolase, the final absorbance (Af) was determined by 3 readings at 340 nm, each 6 minutes apart. The concentration of FDP in the sample was proportional to the difference in the initial and final absorbance. Two moles of NADH are oxidized for each mole of FDP. Blanks and a FDP standard sample were run in parallel with every assay. Each blank had 1.6 ml of the TEA buffer, 1.4 ml water and the mixture of TIM and GDH. For the positive control, the sample was replaced with 1 ml of a solution containing 200 μg FDP per ml of phosphate buffered saline. The trisodium salt of FDP, with a purity of >98%, was utilized for all of the positive control samples and for the standard curves. Levels of FDP in blood were determined per ml, while levels in tissue samples were determined as a function of tissue weight. […]
# [2] = system: spontaneous seizures after pilocarpine-induced status epilepticus; assay: Oral FDP against spontaneous seizures after pilocarpine-induced status epilepticus; assay type: in vivo; conditions: FDP 0.5% in drinking water
# Protocol: Animals (n=14) were treated with pilocarpine to induce status epilepticus and subsequent spontaneous seizures. Four weeks later daily observation was begun and the number of seizures per day was determined for at least 6 days. The mean number of seizures per day over a 6 day period was determined for each animal and this was normalized to 100%. Half of the animals then had FDP added to the drinking water at a concentration of 0.5%. The number of seizures on each day was determined for each animal and calculated as percent of the baseline. The mean (±SEM) across animals in each treatment group was then calculated and plotted as a function of the days of treatment. […] Overall, the data was analyzed with a 2-way ANOVA comparing drug treatment against time and baseline rate of seizures. […] Post-hoc analysis determined that specifically on day 9 and 10 (*) the control was different than FDP-treated. Thus, oral administration of FDP has anticonvulsant activity against the generalized tonic-clonic seizures that are observed after pilocarpine-induced status epilepticus.
smiles,measurement,setting,value
"O=C(COP(=O)(O)O)[C@@H](O)[C@H](O)[C@H](O)COP(=O)(O)O [F1,6BP, Fructose-1,6-bisphosphate]",FDP level in the brain at 12 hours vs levels at 1 and 2 hours,[1]; 0.5 g kg-1 ip,not significantly different
same,time of peak FDP levels in blood,[1]; 0.5 g kg-1 ip,2 h
same,time of peak FDP levels in the brain,[1]; 0.5 g kg-1 ip,1 to 2 h
same,FDP levels in blood vs control,"[1]; 0.5 g kg-1 ip, 1 hour",significant increase
same,FDP level in blood compared to control values,"[1]; 0.5 g kg-1 ip, 12 hours",significantly elevated
same,FDP level in blood compared to the peak levels at 2 hours,"[1]; 0.5 g kg-1 ip, 12 hours",significantly decreased
same,"FDP levels in liver, kidney, muscle and fat","[1]; 0.5 g kg-1 ip, 12 hours",returned to near baseline
same,FDP levels in the brain vs control,"[1]; 0.5 g kg-1 ip, 36 hours",remained significantly elevated
same,FDP levels in blood,"[1]; 0.5 g kg-1 ip, by 6 hours",fallen more than halfway back to baseline
same,"increase in FDP at 1 hour, all tissues measured","[1]; 0.5 g kg-1 ip, liver, kidney, skeletal muscle and fat, n=6",around 0.2 mg g-1
same,"increase in FDP at 1 hour, kidney","[1]; 0.5 g kg-1 ip, n=6",0.26 mg/g
same,"increase in FDP at 1 hour, liver","[1]; 0.5 g kg-1 ip, n=6",0.17 mg/g
same,"increase in FDP at 1 hour, muscle","[1]; 0.5 g kg-1 ip, n=6",0.17 mg/g
same,time at which an increase of FDP levels in blood was first seen,[1]; single dose 0.5 g kg-1 ip,30 min
same,time out to which FDP levels in blood remained elevated,[1]; single dose 0.5 g kg-1 ip,72 h
same,seizures per day (percent of baseline) vs non-treatment control group,[2]; 2-way ANOVA,significantly different
same,animals having a seizure by day 7,[2]; 7 animals,1
